According to paper PMC5041162, “Chemistry and Molecular Dynamics Simulations of Heme b-HemQ and Coproheme-HemQ” (Biochemistry, 2016):

What was measured:
[1] = target: T1, apo-LmHemQ (HemQ from Listeria monocytogenes) (Listeria monocytogenes serovar 1/2a, UniProt Q8Y5F1); format: binding; conditions: pH 7
T1 construct: made in house; host or cells: Escherichia coli
Description: (§1) Time-resolved binding of coproheme to apo-HemQ was monitored using a stopped-flow apparatus equipped with a diode array detector (model SX-18MV, Applied Photophysics), in the conventional mode. […] The fastest mixing time was 1 ms. […]. Experiments were conducted in 50 mM phosphate buffer (pH 7.0). Reactions were simulated, and rates were estimated using Pro-Kineticists software (Applied Photophysics). The apparent second-order rate constants, kon, were obtained from the slope of a plot of kobs versus coproheme concentration.

[2] = target: T2, apo-SaHemQ (HemQ from Staphylococcus aureus) (Staphylococcus aureus, UniProt A6QEP0); format: binding; conditions: pH 7
T2 construct: poly-His (C); made in house; host or cells: Escherichia coli BL21(DE3)pLysS
T2 sequence (A6QEP0 whole entry): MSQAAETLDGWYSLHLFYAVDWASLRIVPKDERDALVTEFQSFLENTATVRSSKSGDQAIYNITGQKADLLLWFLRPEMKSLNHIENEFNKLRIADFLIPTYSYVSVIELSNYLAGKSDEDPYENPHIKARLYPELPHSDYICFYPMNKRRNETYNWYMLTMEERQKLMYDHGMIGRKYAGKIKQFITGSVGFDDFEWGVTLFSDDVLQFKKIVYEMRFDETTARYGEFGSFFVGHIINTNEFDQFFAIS
Description: as §1

[3] = tested on: apo-SaHemQ and apo-LmHemQ; format: binding, S. aureus and L. monocytogenes
Description: as §1

[4] = tested on: SaHemQ; format: binding, Staphylococcus aureus
Description: Differential scanning calorimetry (DSC) measurements were performed using a VP-capillary DSC microcalorimeter from Microcal with a cell volume of 137 μL. The measurements were controlled by the VP-viewer program, and the instrument was equipped with an autosampler for 96-well plates. Samples were analyzed using a programmed heating scan rate of 60 °C h^–1 over a temperature range from 20 to 100 °C, and the cell pressure was approximately 60 psi (4.136 bar). DSC thermograms were corrected for buffer baseline and protein concentration. Apo-, heme b-, or coproheme-LmHemQ and SaHemQ (5 μM each) in 50 mM phosphate buffer (pH 7.0) were used for each measurement. For data analysis and conversion, the Microcal origin software was used. Heat capacity (Cp) was expressed in kilocalories per mole per kelvin. Data points were fitted to non-two-state equilibrium unfolding models by the Lavenberg–Marquardt (LM) nonlinear least-squares method.

[5] = target: apo-myoglobin; conditions: cited from earlier work

T1 sequence (Q8Y5F1 whole entry): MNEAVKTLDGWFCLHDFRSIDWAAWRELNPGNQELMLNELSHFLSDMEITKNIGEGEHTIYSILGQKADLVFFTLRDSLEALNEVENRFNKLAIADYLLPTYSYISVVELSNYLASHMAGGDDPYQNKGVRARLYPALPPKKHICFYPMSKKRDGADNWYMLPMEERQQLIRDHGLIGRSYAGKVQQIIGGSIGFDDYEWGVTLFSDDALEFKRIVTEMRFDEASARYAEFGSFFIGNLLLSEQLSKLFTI

SMILES | kon, binding of coproheme to apo-HemQ, first (fast) phase [1] | kon, binding of coproheme to apo-HemQ, second (slow) phase [1] | kon, binding of coproheme to apo-HemQ, first (fast) phase [2] | kon, binding of coproheme to apo-HemQ, second (slow) phase [2] | rate of coproheme binding, fast phase [3] | increase of Tm when coproheme binds [4] [°C] | KD of the prosthetic group to apo-myoglobin [5]
CC1=C(CCC(=O)O)c2cc3[n-]c(cc4nc(cc5[n-]c(cc1n2)c(CCC(=O)O)c5C)C(C)=C4CCC(=O)O)c(CCC(=O)O)c3C.[Fe] [coproheme, iron coproporphyrin III] | ~1.5 × 10^8 M^–1 s^–1 | 2.2 × 10^6 M^–1 s^–1 | ~2.0 × 10^8 M^–1 s^–1 | 3.7 × 10^6 M^–1 s^–1 | 1.5–2 × 10^8 M^–1 s^–1 | 14 | 
C=CC1=C(C)c2cc3[n-]c(cc4nc(cc5[n-]c(cc1n2)c(C)c5CCC(=O)O)C(CCC(=O)O)=C4C)c(C)c3C=C.[Fe+3] [hemin] |  |  |  |  |  |  | low nanomolar range
